According to US20060084688A1, “Aromatic sulfone hydroxamic acid metalloprotease inhibitor” (priority 1997, published 2006):
Where a name gives a salt, the structure may show the parent alone. Read-outs that look alike come from different tables or passages of the source.

Conditions: for t1/2: Rat Intraveneous

Structure (SMILES)	t1/2 (20 mpk)	other results
Cl.O=C(NO)C1(S(=O)(=O)c2ccc(Sc3ccccc3)cc2)CCN(C2CC2)CC1 [Example 32, 1-cyclopropyl-N-hydroxy-4-[[4-(phenylthio)phenyl]sulfonyl]-4-piperidine carboxamide, monohydrochloride]	1.03 h	
CN1CCC(C(=O)NO)(S(=O)(=O)c2ccc(Sc3ccccc3)cc2)CC1.Cl [Example 33, N-hydroxy-1-methyl-4-[[4-(phenylthio)phenyl]sulfonyl]-4-piperidinecarboxamide, monohydrochloride]	1.91 h	
CC(=O)N1CCC(C(=O)NO)(S(=O)(=O)c2ccc(Sc3ccccc3)cc2)CC1.Cl [Example 36, 1-acetyl-N-hydroxy-4-[[4-(phenylthio)phenyl]sulfonyl]-4-piperidinecarboxamide, monohydrochloride]	0.65 h	
C#CCN1CCC(C(=O)NO)(S(=O)(=O)c2ccc(Oc3ccc(C)c(C)c3)cc2)CC1.Cl [Example 43, 4-[[4-(3,4-Dimethylphenoxyl)phenyl]sulfonyl]-N-hydroxy-1-(2-propynyl)-4-piperidinecarboxamide, monhydrochloride]	0.82 h	
Cl.O=C(NO)C1(S(=O)(=O)c2ccc(Oc3ccc(-n4cncn4)cc3)cc2)CCS(=O)(=O)CC1 [Example 53, Tetrahydro-N-hydroxy-4-[[4-[4-(1H-1,2,4-triazol-1-yl)phenoxy]-phenyl]-sulfonyl]-2H-thiopyran-4-carboxamide 1,1-dioxide, monohydrochloride]	0.97 h	Blood Level @ 6 hr (Rat Oral, 20 mpk, 6 hr): BLD
C#CCN1CCC(C(=O)NO)(S(=O)(=O)c2ccc(Oc3ccc(Cl)c(C)c3)cc2)CC1.Cl [Example 81, 4-[(4-(4-chloro-3-methylphenoxy)phenyl]sulfonyl]-N-hydroxy-1-(2-propynyl)-4-piperidinecarboxamide, monohydrochloride]	0.76 h	
Cl.O=C(NO)C1(S(=O)(=O)c2ccc(Oc3ccc(Cl)cc3)cc2)CCNCC1 [Example 93, 4-[[4-(4-chlorophenoxy)-phenyl]sulfonyl]-N-hydroxy-4-piperidinecarboxamide, monohydrochloride]	1.81 h	
O=C(NO)C1(S(=O)(=O)c2ccc(Oc3ccccc3)cc2)CCOCC1 [Example 94, Tetrahydro-N-hydroxy-4-[(4-phenoxyphenyl)sulfonyl]-2H-pyran-4-carboxamide]	1.71 h	
Cl.O=C(NO)C1(S(=O)(=O)c2ccc(Oc3ccc(-n4ccnc4)cc3)cc2)CCOCC1 [Example 99, tetrahydro-N-hydroxy-4-[[4-[4-(1H-imidazol-1-yl)phenoxy]phenyl]-sulfonyl]-2H-pyran-4-carboxamide, monohydrochloride]	0.68 h	
O=C(NO)C1(S(=O)(=O)c2ccc(Oc3ccc(Cl)cc3)cc2)CCOCC1 [Example 100, 4-[[4-(4-chlorophenoxy)-phenyl]sulfonyl]-tetrahydro-N-hydroxy-2H-pyran-4-carboxamide]	1.50 h	
O=C(NO)C1(S(=O)(=O)c2ccc(Sc3ccc(F)cc3)cc2)CCOCC1 [Example 103, 4-[[4-[(4-fluorophenyl)-thio]phenyl]sulfonyl]tetrahydro-N-hydroxy-2H-pyran-4-carboxamide]	1.10 h	
Cl.O=C(NO)C1(S(=O)(=O)c2ccc(Sc3ccncc3)cc2)CCOCC1 [Example 104, Tetrahydro-N-hydroxy-4-[[4-(4-pyridinylthio)phenyl]sulfonyl]-2H-pyran-4-carboxamide, monohydrochloride]	0.66 h	
O=C(NO)C1(S(=O)(=O)c2ccc(Oc3ccccc3)cc2)CCSCC1 [Example 109]	1.12 h	
O=C(NO)C1(S(=O)(=O)c2ccc(Oc3ccccc3)cc2)CC[S+]([O-])CC1 (stereo not shown) [Example 111]	0.65 h	
Nc1ccc(Sc2ccc(S(=O)(=O)C3(C(=O)NO)CCSCC3)cc2)cc1 [Example 115, tetrahydro-N-hydroxy-4-[[4-[4-aminophenyl)thiophenoxy]phenyl]sulfonyl 2H-thionyran-4-carboxamide]	1.36 h	
O=C(O)CNc1ccc(Oc2ccc(S(=O)(=O)C3(C(=O)NO)CCSCC3)cc2)cc1 [Example 117, tetrahydro-N-hydroxy-4-[[4-[4-hydroxyphenylglycine)]phenyl]sulfonyl 2H-thionyran-4-carboxamide]	0.78 h	
NCC(=O)Nc1ccc(Sc2ccc(S(=O)(=O)C3(C(=O)NO)CCSCC3)cc2)cc1 [Example 118]	1.85 h	
CC(C)c1ccc(Oc2ccc(S(=O)(=O)C3(C(=O)NO)CCOCC3)cc2)cc1 [Example 125, tetrahydro-N-hydroxy-4-[[4-[4-(1-methylethyl)phenoxy]phenyl]-sulfonyl]-2H-pyran-4-carboxamide]	0.73 h	
O=C(NO)C1(S(=O)(=O)c2ccc(Oc3ccc(SC(F)(F)F)cc3)cc2)CCOCC1 [Example 382, Tetrahydro-N-hydroxy-4-[[4-[4-[(trifluoromethyl)thio]phenoxy]phenyl]-sulfonyl]-2H-pyran-4-carboxamide]	1.71 h	
O=C(NO)C1(S(=O)(=O)c2ccc(Oc3ccc(C(F)(F)F)cc3)cc2)CCN(CCN2CCOCC2)CC1 [Example 388, N-hydroxy-1-[2-(4-morpholinyl)-ethyl]-4-[(4-(4-(trifluoromethyl)phenoxy]-phenyl]sulfonyl]-4-piperidinecarboxamide, dihydrochloride]	0.94 h	
O=C(NO)C1(S(=O)(=O)c2ccc(Oc3ccc(C(F)(F)F)cc3)cc2)CCN(Cc2cccnc2)CC1 [Example 390, N-hydroxy-1-(3-pyridinylmethyl)-4-[[4-(4-trifluoromethyl)phenoxy]phenyl]-sulfonyl]-4-piperidinecarboxamide, dihydrochloride]	1.50 h	
O=C(NO)C1(S(=O)(=O)c2ccc(Oc3ccc(C(F)(F)F)cc3)cc2)CCN(Cc2ccccn2)CC1 [Example 391, N-hydroxy-1-(2-pyridinylmethyl)-4-[[4-[4-(trifluoromethyl)phenoxy]phenyl]-sulfonyl]-4-piperidinecarboxamide, dihydrochloride]	1.45 h	
Cl.O=C(NO)C1(S(=O)(=O)c2ccc(Oc3ccc4c(c3)OCCO4)cc2)CCN(C2CC2)CC1 [Example 408, 1-cyclopropyl-4-[[4-[(2,3-dihydro-1,4-benzodioxin-6-yl)oxy]phenyl]-sulfonyl]-N-hydroxy-4-piperidine-carboxamide, monohydrochloride]	3.30 h	
Cl.O=C(NO)C1(S(=O)(=O)c2ccc(Oc3ccc(OC(F)(F)F)cc3)cc2)CCNCC1 [Example 410, N-hydroxy-4-[[4-[(trifluoromethoxy)phenoxy]phenyl]sulfonyl]-4-piperidinecarboxamide, monohydrochloride]	1.78 h	
C#CCN1CCC(C(=O)NO)(S(=O)(=O)c2ccc(Oc3ccc(C(C)C)cc3)cc2)CC1.Cl [Example 414, N-hydroxy-4-[[4-[4-(1-methylethyl)phenoxy]phenyl]sulfonyl]-1-(2-propynyl)-4-piperidinecarboxamide, monohdyrochloride]	0.73 h	
COCCN1CCC(C(=O)NO)(S(=O)(=O)c2ccc(Oc3ccc(OC(F)(F)F)cc3)cc2)CC1.Cl [Example 416, N-hydroxy-1-(2-methoxyethyl)-4-[[4-[4-(trifluoro-methoxy)phenoxy]phenyl]sulfonyl}-4-piperidinecarboxamide, monohydrochloride]	2.94 h	
COCCN1CCC(C(=O)NO)(S(=O)(=O)c2ccc(Oc3ccc(C(F)(F)F)cc3)cc2)CC1.Cl [Example 418, N-hydroxy-1-(2-methoxyethyl)-4-[[4-[4-(trifluoromethyl)-phenoxy]phenyl]sulfonyl}-4-piperidinecarboxamide, monohydrochloride]	2.42 h	
Cl.O=C(NO)C1(S(=O)(=O)c2ccc(Oc3ccc4c(c3)OCO4)cc2)CCN(C2CC2)CC1 [Example 421, 4-[[4-(1,3-benzodioxol-5-yloxy)phenyl]sulfonyl]-1-cyclopropyl-N-hydroxy-4-piperidinecarboxamide, monohydrochloride]		Blood Level @ 6 hr (rat, in vivo, po, 20 mg/kg): 206 ng/mL
Cl.O=C(NO)C1(S(=O)(=O)c2ccc(Oc3ccc(C(F)(F)F)cc3)cc2)CCN(C2CC2)CC1 [Example 427, 1-cyclopropyl-N-hydroxy-4-[[4-[4-(trifluoromethyl)phenoxy]phenyl]sulfonyl]-4-piperidinecarboxamide, monohydrochloride]	2.85 h	
CCN1CCC(C(=O)NO)(S(=O)(=O)c2ccc(OCc3ccc(C(F)(F)F)cc3)cc2)CC1.Cl [Example 438, 1-ethyl-N-hydroxy-4-[(4-[[4-[trifluoromethyl)phenyl]methoxy]-phenyl]sulfonyl]-4-piperidine-carboxamide, monohydrochloride]	2.14 h	
